20 molecules from PubChem BioAssay AID248 (DTP/NCI, 2004) can be followed below.

The subject of this assay is L1210 leukemia ip in BDF1 mice, survival T/C. Kind of assay: NCI In Vivo Anticancer Drug Screen. Data for tumor model L1210 Leukemia (intraperitoneal) in B6D2F1 (BDF1) mice. The conditions noted are these: endpoint: mean survival time, higher = longer survival. The procedure, abridged:
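Read-out is survival time, reported as the treated-group measurement over the vehicle-control measurement.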

[1] abbreviates: dose: 12.5 mg/kg/injection, schedule: Q04DX003 (ip), vehicle: saline.
Where [2] appears, read: dose: 25.0 mg/kg/injection, schedule: Q04DX003 (ip), vehicle: saline.
Where [3] appears, read: dose: 50.0 mg/kg/injection, schedule: Q04DX003 (ip), vehicle: saline.
Setting [4] is: dose: 100.0 mg/kg/injection, schedule: Q04DX003 (ip), vehicle: Klucel (hydroxypropylcellulose) (HPC).
The mark [5] stands for this setting: dose: 200.0 mg/kg/injection, schedule: Q04DX003 (ip), vehicle: Klucel (hydroxypropylcellulose) (HPC).
[6] abbreviates: dose: 400.0 mg/kg/injection, schedule: Q04DX003 (ip), vehicle: Klucel (hydroxypropylcellulose) (HPC).
The mark [7] stands for this setting: dose: 100.0 mg/kg/injection, schedule: Q04DX003 (ip), vehicle: saline with Tween-80.
Setting [8] is: dose: 200.0 mg/kg/injection, schedule: Q04DX003 (ip), vehicle: saline with Tween-80.
The mark [9] stands for this setting: dose: 100.0 mg/kg/injection, schedule: Q01DX001 (ip), vehicle: saline.
Where [10] appears, read: dose: 200.0 mg/kg/injection, schedule: Q01DX001 (ip), vehicle: saline.
The mark [11] stands for this setting: dose: 400.0 mg/kg/injection, schedule: Q01DX001 (ip), vehicle: saline.
The mark [12] stands for this setting: dose: 100.0 mg/kg/injection, schedule: Q01DX001 (ip), vehicle: carboxymethylcellulose (CMC).
The mark [13] stands for this setting: dose: 200.0 mg/kg/injection, schedule: Q01DX001 (ip), vehicle: carboxymethylcellulose (CMC).
Where [14] appears, read: dose: 400.0 mg/kg/injection, schedule: Q01DX001 (ip), vehicle: carboxymethylcellulose (CMC).
[15] abbreviates: dose: 100.0 mg/kg/injection, schedule: Q01DX Z (ip), vehicle: methylcellulose (MC).
Where [16] appears, read: dose: 200.0 mg/kg/injection, schedule: Q01DX Z (ip), vehicle: methylcellulose (MC).
[17] abbreviates: dose: 100.0 mg/kg/injection, schedule: Q04DX002 (ip), vehicle: saline.
Setting [18] is: dose: 200.0 mg/kg/injection, schedule: Q04DX002 (ip), vehicle: saline.
Where [19] appears, read: dose: 400.0 mg/kg/injection, schedule: Q04DX002 (ip), vehicle: saline.

Inconclusive results and toxic doses are left out.

Turning to `CCOc1nc(N)nc2c1-c1ccc(OC)cc1CC2`, the T/C by setting is: (dose: 100.0 mg/kg/injection, schedule: Q04DX002 (ip), vehicle: saline with Tween-80) 91 % of control; (dose: 200.0 mg/kg/injection, schedule: Q04DX002 (ip), vehicle: saline with Tween-80) 102 % of control; (dose: 400.0 mg/kg/injection, schedule: Q04DX002 (ip), vehicle: saline with Tween-80) 87 % of control.
On to `CCOC(=O)/C(C(N)=O)=C(/C)C=C(C)C`, for which the T/C is 101 % of control (dose: 10.0 mg/kg/injection, schedule: Q01DX001 (ip), vehicle: acetone) and 100 % of control (dose: 20.0 mg/kg/injection, schedule: Q01DX001 (ip), vehicle: acetone).
With `CCC1C(=O)OCc2c1c(Br)cn(C)c2=O` (configuration not stated), the T/C under setting [1] was 98 % of control; the T/C (dose: 12.5 mg/kg/injection, schedule: Q04DX003 (oral), vehicle: saline with Tween-80) is 100 % of control; the T/C (dose: 25.0 mg/kg/injection, schedule: Q01DX001 (ip), vehicle: saline with Tween-80) was 101 % of control; the T/C under setting [2] was 97 % of control; the T/C (dose: 25.0 mg/kg/injection, schedule: Q04DX003 (oral), vehicle: saline with Tween-80) is 100 % of control; the T/C (dose: 50.0 mg/kg/injection, schedule: Q01DX001 (ip), vehicle: saline with Tween-80) is 93 % of control. Further, the T/C under setting [3] was 108 % of control; the T/C (dose: 50.0 mg/kg/injection, schedule: Q04DX003 (oral), vehicle: saline with Tween-80) is 104 % of control; the T/C (dose: 100.0 mg/kg/injection, schedule: Q01DX001 (ip), vehicle: saline with Tween-80) is 97 % of control; the T/C (dose: 100.0 mg/kg/injection, schedule: Q04DX003 (ip), vehicle: saline) is 93 % of control; the T/C (dose: 100.0 mg/kg/injection, schedule: Q04DX003 (oral), vehicle: saline with Tween-80) is 96 % of control; the T/C (dose: 200.0 mg/kg/injection, schedule: Q01DX001 (ip), vehicle: saline with Tween-80) was 101 % of control.
Turning to `COc1ccc(OC)c(NC(=O)Nc2cccc(Cl)c2Cl)c1`, the T/C is, setting by setting: under setting [4], 86 % of control; under setting [5], 90 % of control; under setting [6], 88 % of control.
Consider `Cc1c[n+]([O-])cc(C)c1N=Nc1ccc(N(C)C)cc1`, for which the T/C under setting [7] was 103 % of control and the T/C under setting [8] is 96 % of control.
For the molecule `O=C(Cc1cccc([N+](=O)[O-])c1)Nc1ccc(S(=O)(=O)F)cc1`, the T/C is 112 % of control under setting [9], 111 % of control under setting [10] and 110 % of control under setting [11].
As to `c1ccc2c(B(c3cccc4ccccc34)c3cccc4ccccc34)cccc2c1`, the T/C runs as follows: under setting [4], 94 % of control; under setting [5], 97 % of control; under setting [6], 102 % of control.
As to `O=S(=O)(CBr)C1C2C=CC(C2)C1c1ccccc1` (configuration not stated), the T/C by setting is: (dose: 100.0 mg/kg/injection, schedule: Q04DX002 (ip), vehicle: Klucel (hydroxypropylcellulose) (HPC)) 106 % of control; (dose: 200.0 mg/kg/injection, schedule: Q04DX002 (ip), vehicle: Klucel (hydroxypropylcellulose) (HPC)) 106 % of control; (dose: 400.0 mg/kg/injection, schedule: Q04DX002 (ip), vehicle: Klucel (hydroxypropylcellulose) (HPC)) 97 % of control.
For the molecule `O=c1[nH]nnc2nn(C3OC(CO)C(O)C3O)cc12` (configuration not stated), the T/C is, setting by setting: (dose: 100.0 mg/kg/injection, schedule: Q01DX005 (ip), vehicle: saline) 103 % of control; (dose: 200.0 mg/kg/injection, schedule: Q01DX005 (ip), vehicle: saline) 109 % of control.
Regarding `Cc1nc(N)nc(N)c1-c1ccccc1`, the T/C under setting [12] is 100 % of control, the T/C under setting [13] was 94 % of control and the T/C under setting [14] is 92 % of control.
On to `CCc1c(Nc2ccc(C)c(C)c2)[nH]c(N)nc1=S`, for which the T/C under setting [15] was 87 % of control and the T/C under setting [16] is 109 % of control.
Consider `CC12c3ccccc3C(c3ccccc31)C1C(=O)OC(=O)C12` (configuration not stated), for which the T/C runs as follows: under setting [12], 98 % of control; under setting [7], 90 % of control; under setting [13], 96 % of control; under setting [8], 92 % of control; under setting [14], 93 % of control.
On to `Cc1ccc(Nc2cc(=S)nc(N)[nH]2)cc1C`, for which the T/C was 103 % of control under setting [15] and 95 % of control under setting [16].
As to `Nc1nc(N)nc(CCc2nc(N)nc(N)n2)n1`, the T/C reads like this: (dose: 50.0 mg/kg/injection, schedule: Q01DX001 (ip), vehicle: carboxymethylcellulose (CMC)) 95 % of control; under setting [12], 90 % of control; under setting [13], 87 % of control; under setting [14], 92 % of control.
With `Nc1nc(N)c2c(Cl)c(CNc3ccc(C(=O)NC(CC(=O)O)CC(=O)O)cc3)ccc2n1`, the T/C by setting is: under setting [1], 157 % of control; under setting [2], 178 % of control; under setting [3], 90 % of control.
In the case of `CN(C)c1ccc(C(=O)NO)cc1`, the T/C by setting is: (dose: 100.0 mg/kg/injection, schedule: Q01DX009 (ip), vehicle: Klucel (hydroxypropylcellulose) (HPC)) 97 % of control; (dose: 200.0 mg/kg/injection, schedule: Q01DX009 (ip), vehicle: Klucel (hydroxypropylcellulose) (HPC)) 105 % of control; (dose: 400.0 mg/kg/injection, schedule: Q01DX009 (ip), vehicle: Klucel (hydroxypropylcellulose) (HPC)) 100 % of control.
For the molecule `Cc1nc(N)[nH]c(=O)c1CCCNc1ccc(/C=C/C(=O)CCl)cc1`, the T/C is 90 % of control (dose: 50.0 mg/kg/injection, schedule: Q01DX Z (ip), vehicle: carboxymethylcellulose (CMC)); 86 % of control (dose: 100.0 mg/kg/injection, schedule: Q01DX Z (ip), vehicle: carboxymethylcellulose (CMC)); 90 % of control (dose: 200.0 mg/kg/injection, schedule: Q01DX Z (ip), vehicle: carboxymethylcellulose (CMC)); 90 % of control (dose: 400.0 mg/kg/injection, schedule: Q01DX Z (ip), vehicle: carboxymethylcellulose (CMC)).
For the molecule `CNCCNC`, the T/C is 94 % of control under setting [9]; 103 % of control under setting [17]; 102 % of control under setting [10]; 103 % of control under setting [18]; 96 % of control under setting [11]; 90 % of control under setting [19].
Regarding `CC(=O)OCCOc1ccc(Cl)cc1`, the T/C under setting [17] was 107 % of control, the T/C under setting [18] was 96 % of control and the T/C under setting [19] is 107 % of control.
Take `Cc1ccc(/C=C/S(=O)(=O)c2ccccc2)cc1`: the T/C by setting is: (dose: 100.0 mg/kg/injection, schedule: Q01DX001 (ip), vehicle: acetone) 109 % of control; (dose: 100.0 mg/kg/injection, schedule: Q01DX009 (ip), vehicle: acetone) 87 % of control; (dose: 100.0 mg/kg/injection, schedule: Q04DX003 (ip), vehicle: acetone) 97 % of control; (dose: 200.0 mg/kg/injection, schedule: Q01DX001 (ip), vehicle: acetone) 98 % of control; (dose: 200.0 mg/kg/injection, schedule: Q01DX009 (ip), vehicle: acetone) 87 % of control; (dose: 200.0 mg/kg/injection, schedule: Q04DX003 (ip), vehicle: acetone) 103 % of control. Also, the T/C is 98 % of control (dose: 400.0 mg/kg/injection, schedule: Q01DX001 (ip), vehicle: acetone); 88 % of control (dose: 400.0 mg/kg/injection, schedule: Q01DX009 (ip), vehicle: acetone); 105 % of control (dose: 400.0 mg/kg/injection, schedule: Q04DX003 (ip), vehicle: acetone).
